Source: PubChem BioAssay AID1918995 (Molecular Pharmacology Branch, DTP, NCI, 2023)

Test system: 324938-238-R-J1-PDC complex spheroid growth, % test/control
Test: Anticancer human tumor 324938-238-R-J1-PDC patient-derived bladder carcinoma cell line growth inhibition [AhR]
Conditions: for IC50: curve of first compound; for viability, T/C: stronger effect = lower value
Summary of the method: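 Complex tumor spheroids co-cultured with HUVEC and human MSC stroma; AhR antagonists tested in combination with standard-of-care and investigational agents. Top concentration at or near clinical Cmax (else 10 microM), half-log dilutions; growth expressed as percent test/control.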

[1] = second compound 0.1 µM, first compound 0.0316 µM
[2] = second compound 0.1 µM, first compound 0.1 µM
[3] = second compound 0.1 µM, first compound 0.316 µM
[4] = second compound 0.1 µM, first compound 1 µM
[5] = second compound 0.1 µM, first compound 3.16 µM
[6] = second compound 0.1 µM, first compound 10 µM
[7] = second compound 0.316 µM, first compound 0.0316 µM
[8] = second compound 0.316 µM, first compound 0.1 µM
[9] = second compound 0.316 µM, first compound 0.316 µM
[10] = second compound 0.316 µM, first compound 1 µM
[11] = second compound 0.316 µM, first compound 3.16 µM
[12] = second compound 0.316 µM, first compound 10 µM
[13] = second compound 1 µM, first compound 0.0316 µM
[14] = second compound 1 µM, first compound 0.1 µM
[15] = second compound 1 µM, first compound 0.316 µM
[16] = second compound 1 µM, first compound 1 µM
[17] = second compound 1 µM, first compound 3.16 µM
[18] = second compound 1 µM, first compound 10 µM
[19] = second compound 3.16 µM, first compound 0.0316 µM
[20] = second compound 3.16 µM, first compound 0.1 µM
[21] = second compound 3.16 µM, first compound 0.316 µM
[22] = second compound 3.16 µM, first compound 1 µM
[23] = second compound 3.16 µM, first compound 3.16 µM
[24] = second compound 3.16 µM, first compound 10 µM
[25] = second compound 10 µM, first compound 0.0316 µM
[26] = second compound 10 µM, first compound 0.1 µM
[27] = second compound 10 µM, first compound 0.316 µM
[28] = second compound 10 µM, first compound 1 µM
[29] = second compound 10 µM, first compound 3.16 µM
[30] = second compound 10 µM, first compound 10 µM
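Also: spheroids exposed to agents for seven days before viability read.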

SMILES: CC1(C)CCC(CN2CCN(c3ccc(C(=O)NS(=O)(=O)c4ccc(NCC5CCOCC5)c([N+](=O)[O-])c4)c(Oc4cnc5[nH]ccc5c4)c3)CC2)=C(c2ccc(Cl)cc2)C1 + Cc1cncc(-c2nc(NCCc3c[nH]c4ccccc34)c3ncn(C(C)C)c3n2)c1
- IC50 (second compound 0.1 µM): > 10000 nM
- IC50 (second compound 0.316 µM): > 10000 nM
- IC50 (second compound 1 µM): > 10000 nM
- IC50 (second compound 3.16 µM): > 10000 nM
- IC50 (second compound 10 µM): < 31.6 nM
- viability, T/C [1]: 108%
- viability, T/C [2]: 80.3%
- viability, T/C [3]: 109%
- viability, T/C [4]: 93%
- viability, T/C [5]: 109%
- viability, T/C [6]: 117%
- viability, T/C [7]: 94.2%
- viability, T/C [8]: 96.9%
- viability, T/C [9]: 136%
- viability, T/C [10]: 87.7%
- viability, T/C [11]: 86.6%
- viability, T/C [12]: 114%
- viability, T/C [13]: 112%
- viability, T/C [14]: 123%
- viability, T/C [15]: 131%
- viability, T/C [16]: 107%
- viability, T/C [17]: 103%
- viability, T/C [18]: 130%
- viability, T/C [19]: 106%
- viability, T/C [20]: 93.5%
- viability, T/C [21]: 115%
- viability, T/C [22]: 102%
- viability, T/C [23]: 112%
- viability, T/C [24]: 106%
- viability, T/C [25]: 13.5%
- viability, T/C [26]: 8.66%
- viability, T/C [27]: 11.9%
- viability, T/C [28]: 7.88%
- viability, T/C [29]: 9.07%
- viability, T/C [30]: 12.5%

SMILES: CCN(c1cc(-c2ccc(CN3CCOCC3)cc2)cc(C(=O)NCc2c(C)cc(C)[nH]c2=O)c1C)C1CCOCC1 + Cc1cncc(-c2nc(NCCc3c[nH]c4ccccc34)c3ncn(C(C)C)c3n2)c1
- IC50 (second compound 0.1 µM): > 3000 nM
- IC50 (second compound 0.316 µM): > 3000 nM
- IC50 (second compound 1 µM): > 3000 nM
- IC50 (second compound 3.16 µM): > 3000 nM
- IC50 (second compound 10 µM): < 9.49 nM
- viability, T/C (second compound 0.1 µM, first compound 0.00949 µM): 106%
- viability, T/C (second compound 0.1 µM, first compound 0.03 µM): 135%
- viability, T/C (second compound 0.1 µM, first compound 0.0949 µM): 123%
- viability, T/C (second compound 0.1 µM, first compound 0.3 µM): 104%
- viability, T/C (second compound 0.1 µM, first compound 0.949 µM): 106%
- viability, T/C (second compound 0.1 µM, first compound 3 µM): 156%
- viability, T/C (second compound 0.316 µM, first compound 0.00949 µM): 94.5%
- viability, T/C (second compound 0.316 µM, first compound 0.03 µM): 89.3%
- viability, T/C (second compound 0.316 µM, first compound 0.0949 µM): 112%
- viability, T/C (second compound 0.316 µM, first compound 0.3 µM): 105%
- viability, T/C (second compound 0.316 µM, first compound 0.949 µM): 109%
- viability, T/C (second compound 0.316 µM, first compound 3 µM): 112%
- viability, T/C (second compound 1 µM, first compound 0.00949 µM): 83.9%
- viability, T/C (second compound 1 µM, first compound 0.03 µM): 118%
- viability, T/C (second compound 1 µM, first compound 0.0949 µM): 117%
- viability, T/C (second compound 1 µM, first compound 0.3 µM): 109%
- viability, T/C (second compound 1 µM, first compound 0.949 µM): 94%
- viability, T/C (second compound 1 µM, first compound 3 µM): 108%
- viability, T/C (second compound 3.16 µM, first compound 0.00949 µM): 102%
- viability, T/C (second compound 3.16 µM, first compound 0.03 µM): 102%
- viability, T/C (second compound 3.16 µM, first compound 0.0949 µM): 124%
- viability, T/C (second compound 3.16 µM, first compound 0.3 µM): 86.3%
- viability, T/C (second compound 3.16 µM, first compound 0.949 µM): 110%
- viability, T/C (second compound 3.16 µM, first compound 3 µM): 93.8%
- viability, T/C (second compound 10 µM, first compound 0.00949 µM): 12.1%
- viability, T/C (second compound 10 µM, first compound 0.03 µM): 15.5%
- viability, T/C (second compound 10 µM, first compound 0.0949 µM): 15.5%
- viability, T/C (second compound 10 µM, first compound 0.3 µM): 17.9%
- viability, T/C (second compound 10 µM, first compound 0.949 µM): 8.72%
- viability, T/C (second compound 10 µM, first compound 3 µM): 7.72%

SMILES: Cn1ncnc1C1c2n[nH]c(=O)c3cc(F)cc(c23)NC1c1ccc(F)cc1 (stereo not given) + Cc1cncc(-c2nc(NCCc3c[nH]c4ccccc34)c3ncn(C(C)C)c3n2)c1
- IC50 (second compound 0.1 µM): > 100 nM
- IC50 (second compound 0.316 µM): > 100 nM
- IC50 (second compound 1 µM): > 100 nM
- IC50 (second compound 3.16 µM): > 100 nM
- IC50 (second compound 10 µM): < 0.316 nM
- viability, T/C (second compound 0.1 µM, first compound 0.000316 µM): 92.1%
- viability, T/C (second compound 0.1 µM, first compound 0.001 µM): 110%
- viability, T/C (second compound 0.1 µM, first compound 0.00316 µM): 105%
- viability, T/C (second compound 0.1 µM, first compound 0.01 µM): 94.5%
- viability, T/C [1]: 120%
- viability, T/C [2]: 86.2%
- viability, T/C (second compound 0.316 µM, first compound 0.000316 µM): 108%
- viability, T/C (second compound 0.316 µM, first compound 0.001 µM): 113%
- viability, T/C (second compound 0.316 µM, first compound 0.00316 µM): 138%
- viability, T/C (second compound 0.316 µM, first compound 0.01 µM): 81.6%
- viability, T/C [7]: 112%
- viability, T/C [8]: 105%
- viability, T/C (second compound 1 µM, first compound 0.000316 µM): 78.9%
- viability, T/C (second compound 1 µM, first compound 0.001 µM): 142%
- viability, T/C (second compound 1 µM, first compound 0.00316 µM): 116%
- viability, T/C (second compound 1 µM, first compound 0.01 µM): 112%
- viability, T/C [13]: 106%
- viability, T/C [14]: 134%
- viability, T/C (second compound 3.16 µM, first compound 0.000316 µM): 93.7%
- viability, T/C (second compound 3.16 µM, first compound 0.001 µM): 112%
- viability, T/C (second compound 3.16 µM, first compound 0.00316 µM): 92.6%
- viability, T/C (second compound 3.16 µM, first compound 0.01 µM): 98.1%
- viability, T/C [19]: 94.2%
- viability, T/C [20]: 99.3%
- viability, T/C (second compound 10 µM, first compound 0.000316 µM): 9.29%
- viability, T/C (second compound 10 µM, first compound 0.001 µM): 12.6%
- viability, T/C (second compound 10 µM, first compound 0.00316 µM): 9.9%
- viability, T/C (second compound 10 µM, first compound 0.01 µM): 13%
- viability, T/C [25]: 9.12%
- viability, T/C [26]: 22.1%

SMILES: NS(=O)(=O)OCC1CC(n2ccc3c(NC4CCc5ccccc54)ncnc32)CC1O (stereo not given) + Cc1cncc(-c2nc(NCCc3c[nH]c4ccccc34)c3ncn(C(C)C)c3n2)c1
- IC50 (second compound 0.1 µM): 2650 nM
- IC50 (second compound 0.316 µM): 2480 nM
- IC50 (second compound 1 µM): 2970 nM
- IC50 (second compound 3.16 µM): 8510 nM
- IC50 (second compound 10 µM): < 31.6 nM
- viability, T/C [1]: 122%
- viability, T/C [2]: 101%
- viability, T/C [3]: 93.4%
- viability, T/C [4]: 71.9%
- viability, T/C [5]: 42.9%
- viability, T/C [6]: 25.7%
- viability, T/C [7]: 99.7%
- viability, T/C [8]: 104%
- viability, T/C [9]: 99.9%
- viability, T/C [10]: 71%
- viability, T/C [11]: 46.4%
- viability, T/C [12]: 32.5%
- viability, T/C [13]: 82.3%
- viability, T/C [14]: 95.5%
- viability, T/C [15]: 95.3%
- viability, T/C [16]: 97.6%
- viability, T/C [17]: 47.5%
- viability, T/C [18]: 29.1%
- viability, T/C [19]: 80%
- viability, T/C [20]: 114%
- viability, T/C [21]: 140%
- viability, T/C [22]: 103%
- viability, T/C [23]: 64.2%
- viability, T/C [24]: 47.5%
- viability, T/C [25]: 7.19%
- viability, T/C [26]: 15.3%
- viability, T/C [27]: 19%
- viability, T/C [28]: 23%
- viability, T/C [29]: 14.3%
- viability, T/C [30]: 7.16%
